Reference: patent publication US20150267174A1, “REPROGRAMMING PEPTIDE AND USE THEREOF” (priority 2012, published 2015)
Square brackets hold non-standard residues; d marks the D form. Cysamide = C-terminal cysteamide

Tests used:
Assay type in all cases: cell-based
[1] = system: Human adult fibroblast strain TIG113; experiment: Spheroid formation after reverse transfection of peptide into fibroblasts; conditions: for spheroid formation ability (in words): reverse transfection, TIG113; for degree of spheroid formation: number of ES cell colony-like spheroids, peptide 30 μg/well solid-phased on 12 well plate, 2×10^4 cells seeded, measured 7-10 days later
Description: Human adult fibroblast strain TIG113 was cultured in a medium mainly containing 10% fetal bovine serum-containing EMEM under humidified conditions at 37° C. and 5% CO2 until it reached 1×10^7 cells. A plate for reverse transfection was prepared by applying each peptide shown in Table 1 to each well of a 12 well plate at a concentration of 30 μg/well, and forming a solid phase by air-drying. Grown TIG113 was washed with CMF-PBS, and incubated in 0.25% trypsin solution at 37° C. for 10-15 min to dissociate the cells. Centrifugation and washing with PBS were repeated twice and the cells were suspended in iPS medium (manufactured by ReproCELL Incorporated). Using the cell suspension, human fibroblast was seeded at 2×10^4 cells on a plate for reverse transfection. As a reverse transfection medium, an iPS medium containing 10% fetal bovine serum and not containing bFGF was used. The number of ES colony-like spheroids formed was measured 7-10 days later, and the spheroid formation degree was evaluated (Table 1). In an experiment using the peptides of H11, H16, and H29, the ratio of the cells forming spheroid was calculated.

[2] = system: human fibroblast (manufactured by KURABO INDUSTRIES LTD.); experiment: Spheroid formation and marker expression using human adult fibroblast
Source text: Using a method similar to that of Example 1, H11 peptide was introduced into human fibroblast (manufactured by KURABO INDUSTRIES LTD.).
The prepared spheroid was subjected to expression analysis of pluripotency marker and differentiation marker according to the method of Example 2. As a result, it was positive to pluripotency markers of alkaline phosphatase, SSEA-3, TRA-1-61, Oct3/4, Sox2, and Nanog. Furthermore, the expression of neural stem cell marker nestin, nerve marker neurofilament 160, βIII tubulin, MAP2, and GFAP was confirmed by continuous culture. Furthermore, the expression of insulin producing cell marker proinsulin, and C-peptide was also confirmed.

[3] = system: Human adult fibroblast strain TIG113; experiment: Marker expression (immunostaining, alkaline phosphatase staining) of spheroid cells
Description: The pluripotent spheroid cell obtained in Example 1, by introducing a reprogramming peptide into differentiated cell, was examined for undifferentiation, expression of nerve marker and the like.
Using the H11 peptide shown in Table 1, the cells were made to form spheroid according to the method shown in Example 1, and incubated in 1% H2O2 containingmethanol at room temperature for 5 min to immobilize the cells. The cells were washed five times with PBS, and blocked with PBS containing 5% FBS/0.05% gelatin/3% skim milk/1% BSA (hereinafter Block Ace) at room temperature for 1-2 hr. Furthermore, the cells were reacted at room temperature for 2 hr with the primary antibody shown in Table 2 and appropriately diluted with Block Ace. The cells were washed five times with PBS, and the HPR-labeled secondary antibody was appropriately diluted with Block Ace and reacted at room temperature for 1 hr. Lastly, the cells were washed five times with PBS, and the antigen was visualized according to the protocol of Peroxidase Stain DAB Kit &enhancer (Nacalai Tesque).
For alkaline phosphatase staining, the cells immobilized by the aforementioned method were incubated at room temperature for 30 min using BCIP/NBT Color Development Substrate (Promega). The reaction was quenched by washing five times with PBS.

[4] = system: swine vascular endothelial cell; experiment: Spheroid formation and marker staining in various cells
Source text: (§1) By a method similar to that of Example 1, H11 peptide was introduced into BHK21, A549, H293 cell, mouse feeder cell (COSMO BIO co., ltd.: RCHEFC003), bovine vascular endothelial cell (TOYOBO CO., LTD.: CAB300K05), and swine vascular endothelial cell (TOYOBO CO., LTD.: CAP300K05).

[5] = system: A549; experiment: as above
Source text: as §1

[6] = system: BHK21; experiment: as above
Source text: as §1

[7] = system: H293 cell; experiment: as above
Source text: as §1

[8] = system: bovine vascular endothelial cell; experiment: as above
Source text: as §1

[9] = system: mouse feeder cell; experiment: as above
Source text: as §1

[10] = system: Human adult fibroblast strain TIG113; experiment: CD105/CD146/CD31 antibody staining of spheroid cells
Description: The pluripotent spheroid cell obtained in Example 1 by introducing a reprogramming peptide into a differentiated cell was examined for undifferentiation, and expressions of nerve marker and the like.
Using the H11 peptide shown in Table 1, the cells were made to form spheroid according to the method shown in Example 1 and incubated using 1% H2O2-containing methanol at room temperature for 5 min, and immobilized.
Using the antibody described in Table 3, cells were stained according to a package insert. As the secondary antibody, HRP-labeled goat anti-mouse IgG antibody (manufactured by Promega KK, Goat Anti-Mouse IgG (H+L), HRP Conjugate) was used.

## Ac-GALFLGFLGAAGSTMGA-Cysamide [H13]
[1]
  spheroid formation ability (in words): no spheroid formation ability

## Ac-GALFLGFLGAAGSTMGA/WSQ/KKRTLRKNDRKKR-Cysamide (Ac-GALFLGFLGAAGSTMGAWSQKKRTLRKNDRKKR-Cysamide) [H36]
[1]
  degree of spheroid formation: +++ (+++ about 50-100)

## Ac-GALFLGFLGAAGSTMGA/WSQ/RSRKYTSWYVALKR-Cysamide (Ac-GALFLGFLGAAGSTMGAWSQRSRKYTSWYVALKR-Cysamide) [H37]
[1]
  degree of spheroid formation: +++ (+++ about 50-100)

## Ac-GALFLGFLGAAGSTMGAWSQGKKRSKA-Cysamide [H29]
[1]
  degree of spheroid formation: +++ (+++ about 50-100)
  spheroid formation ability (in words): has spheroid formation ability

## Ac-GALFLGFLGAAGSTMGAWSQPKKKRKV-Cysamide [H11]
[1]
  degree of spheroid formation: +++ (+++ about 50-100)
[2]
  expression of alpha-fetoprotein and albumin: confirmed
  expression of proinsulin and C-peptide: confirmed
  oil red O staining: differentiation into adipose tissue was found
[2]; continuous culture
  expression of nestin, neurofilament 160, βIII tubulin, MAP2, GFAP: confirmed
[2]; human fibroblast (KURABO)
  spheroid formation: finally formed spheroid
[2]; prepared spheroid
  pluripotency markers alkaline phosphatase, SSEA-3, TRA-1-61, Oct3/4, Sox2, Nanog: positive
[3]; spheroid cells from TIG113
  expression of pluripotent markers alkaline phosphatase, Oct3/4, Sox2, Nanog, SSEA-3, Tra-1-81: express
  expression of proinsulin and C-peptide (insulin producing cell markers): confirmed
[3]; when the culture period becomes long
  expression of nestin, neurofilament 160, βIII tubulin, MAP2, GFAP: confirmed
[4]
  alkaline phosphatase, SSEA-3 staining: positive
  spheroid formation: formed spheroids
[5]
  alkaline phosphatase, SSEA-3 staining: positive
  spheroid formation: formed spheroids
[6]
  alkaline phosphatase, SSEA-3 staining: positive
  spheroid formation: formed spheroids
[7]
  alkaline phosphatase, SSEA-3 staining: positive
  spheroid formation: formed spheroids
[8]
  alkaline phosphatase, SSEA-3 staining: positive
  spheroid formation: formed spheroids
[9]
  alkaline phosphatase, SSEA-3 staining: positive
  spheroid formation: formed spheroids
[10]
  mesenchymal stem cell marker CD105: positive
  pericyte marker CD146: positive
  vascular endothelial cell marker CD31: negative

## Ac-GALFLGFLGAAGSTMGAWSQPKSKRKV-Cysamide [H6]
[1]
  degree of spheroid formation: + (+ about −10)

## Ac-GALFLGFLGAAGSTMGAmSQPKSKRKV-Cysamide (Ac-GALFLGFLGAAGSTMGA[dM]SQPKSKRKV-Cysamide) [H10]
[1]
  degree of spheroid formation: + (+ about −10)

## Ac-PKKKRKV-Cysamide [H18, SV40 Large T antigen NLS]
[1]
  spheroid formation ability (in words): Spheroid is not formed

## Ac-RQIKIWFQNRRMKWKKWSQGKKRSKA-Cysamide [H31]
[1]
  degree of spheroid formation: + (+ about −10)

## GALFLGFLGAAGSTMGAWSQPKSKRKV (Reprogramming peptide) [H1]
[1]
  degree of spheroid formation: ++ (++ about 10-50)

## GALFLGFLGAAGSTMGAmSQPKSKRKV (GALFLGFLGAAGSTMGAMSQPKSKRKV; not fully specified; D-Met; Reprogramming peptide) [H5]
[1]
  degree of spheroid formation: + (+ about −10)
